This note sets out measurements from US20020042079A1, “METHODS AND AGENTS FOR MEASURING AND CONTROLLING MULTIDRUG RESISTANCE” (priority 1994, published 2002).

Structures are written as SMILES.

The test system of one data set is MDA-A1 cells. Nature of the data set: Acridine orange labeling of acidic compartments. Type of data set: cell-based, human. The settings on record: 10 μM Tamoxifen, estrogen receptor negative cells. The method, then:
Labeling of Cells with Acridine Orange: To examine intracellular acidic compartments, acridine orange (6 μM in medium from a 10 mM stock in water) was added directly to cells in the Lab-Tek chambers and the cells were incubated for 15 minutes. Cells in the presence of acridine orange were then examined utilizing an excitation at 488 nm and dual emission confocal images were simultaneously recorded using both a 530-30 band pass barrier filter (green fluorescence) and a 605 nm long pass barrier filter (red fluorescence). Optical sections of the fluorescent samples were recorded at 0.5 micron intervals with a 60×oil immersion objective.
There is red fluorescence in punctate cytoplasmic organelles and in a perinuclear region.

Data set [1] relates to MCF-7/ADR cells. Nature of the data set: Transport of BODIPY-transferrin from recycling endosomes to cell surface.
Data set [2] relates to MCF-7/ADR cells. Kind of data set: Transport of BODIPY-sphingomyelin from TGN to cell surface. Type of data set: cell-based, human. The following applies: Tamoxifen 10 μM. The method, then:
When accumulated at high concentrations, BODIPY-sphingomyelin undergoes a green to red shift in fluorescence emission.
Cells were fixed by washing two times in cold fixing buffer (1% paraformaldehyde, 0.1 M sodium cacodylate, 0.1 M sucrose, pH 7.2) followed by a 15 minute incubation in fixing buffer on ice, and then washing two times with cold fixing buffer without paraformaldehyde. […] Biophys.

For another data set, the system named is MCF-7adr cells. Nature of the data set: Bodipy-ceramide and Bodipy-lactalbumin labeling of TGN and pericentriolar recycling compartment. The class given is cell-based, human. The following applies: tamoxifen treatment of MCF-7adr cells. The text has this: Endocytotic pathway (fourth row): To examine internalization, Bodipy-lactalbumin (Bodipy-Lac, Molecular Probes, Eugene, Oreg.) was used as a fluid phase marker.
Conversion of Bodipy-ceramide to Bodipy-sphingomyelin (in cis-Golgi) is associated with the movement of the newly synthesized fluorescent lipid to the trans-Golgi network (TGN). As the Bodipy-sphingomyelin concentration increases within the TGN and secretory vesicles, a long wavelength shift in fluorescence occurs that results in red fluorescent structures (TGN and secretory vesicles) against a green fluorescent background. […] To examine internalization, Bodipy-lactalbumin (Bodipy-Lac, Molecular Probes, Eugene, Oreg.) was used as a fluid phase marker.

The test system of data set [3] is fresh liver and kidney tissue from mice. Nature of the data set: In vitro acidification of organelles from fresh tissue. The class given is biochemical. The text has this: The in vitro acidification assay used purified microsomes that had been resuspended in a salt buffer without additional cytosolic or nuclear components.

Turning to `CC/C(=C(\c1ccccc1)c1ccc(OCCN(C)C)cc1)c1ccccc1` [Tamoxifen], the “red acridine orange fluorescence after Tamoxifen” value in the data set with MDA-A1 cells was “substantial reduction in the red acridine orange fluorescence”. Further, the “red acridine orange fluorescence after Tamoxifen” value with MDA-A1 cells (listed as tamoxifen) is on record as “substantial decrease in the red acridine orange fluorescence”. Further, in the data set on MCF-7/ADR cells [1] (10 μM tamoxifen), the “time for intracellular BODIPY-transferrin to decrease to 50% of its steady-state level” value was determined as 30 min. Besides, in the data set with MCF-7/ADR cells [1] (Tamoxifen 10 μM), the “BODIPY-transferrin remaining with cells after 25 minutes” value was “More than 60%” and the “BODIPY-transferrin remaining with cells after five minutes” value is given as “more than 90%”. Besides, in the data set with MCF-7/ADR cells [2], the “sphingomyelin fluorescence remaining associated with the cells after two hours” value was “more than 70%”. Besides, in the data set with MCF-7adr cells, the “TGN structure (Bodipy-ceramide labeling)” value is “produces a similar fragmentation of TGN structure” and the “structure of the PRC (bodipy-lactalbumin labeling)” value is “disrupts the structure of the PRC”. For the same molecule, the “effect on in vitro acidification compared with MCF-7/ADR microsomes” value in data set [3] is given as “similar”.
